In patent US20260199481A1, “PROTEIN DEGRADATION TARGETING CHIMERA COMPOUND, COMPOSITION THEREOF, AND USE THEREOF” (TSINGHUA UNIVERSITY, priority 2022, published 2026):
Like-named read-outs stand apart in the source and are kept apart here.

Tested on: MCF-7 cells
Assay: In vitro anti-tumor effect, CellTiter 96 viability assay
Assay type: cell-based
Settings: Homo sapiens, MCF7, light or radiation study
Description: Experimental Procedure: MCF-7 cells in the logarithmic growth phase were used for the experiment. The cells were seeded at 5000 cells per well in 96-well plates and incubated for 24 hours at 37° C. The cells were treated with Example compounds A1-D3 for 3 h. Subsequently, the irradiated group was irradiated with 10-30 Gy of X-rays, and the cells were continued to be incubated until 72 h after completion of irradiation. At the end of drug treatment, 20 μL of CellTiter 96° solution was added to each well. The well plates were incubated in an incubator for 2-4 hours, and then the absorbance was measured using a plate reader. Data were analyzed with GraphPad Prism software to obtain the IC50 values of each test compound.

[1] = compound 3 h, then X-rays 10 Gy or 30 Gy, 72 h after irradiation, read-out: Irradiation with 10 Gy or 30 Gy IC50
[2] = no irradiation, 72 h incubation, read-out: Radiation-free IC50

IC50 [1] [nM] | IC50 [2] [nM] | Structure (SMILES)
103 | 1110 | COc1cc(COC(=O)O[C@@H]2C[C@@H](C(=O)N[C@@H](C)c3ccc(-c4scnc4C)cc3)N(C(=O)[C@H](NC(=O)COCCOCCOCCNC(=O)C[C@@H]3N=C(c4ccc(Cl)cc4)c4c(sc(C)c4C)-n4c(C)nnc43)C(C)(C)C)C2)cc(OC)c1 [Compound A2]
273 | 2540 | Cc1sc2c(c1C)C(c1ccc(Cl)cc1)=N[C@@H](CC(=O)C(CCCCNc1cccc3c1C(=O)N(C1CCC(=O)NC1=O)C3=O)Cc1c(F)c(F)c(F)c(F)c1F)c1nnc(C)n1-2 (stereo partly shown) [Compound A3]
119 | 1080 | Cc1ncsc1-c1ccc([C@H](C)NC(=O)[C@@H]2C[C@@H](OC(=O)OCc3c(F)c(F)c(N=[N+]=[N-])c(F)c3F)CN2C(=O)[C@H](NC(=O)COCCCOCCNC(=O)C[C@@H]2N=C(c3ccc(Cl)cc3)c3c(sc(C)c3C)-n3c(C)nnc32)C(C)(C)C)cc1 [Compound B1]
119 | 1060 | COc1cc(COC(=O)O[C@@H]2C[C@@H](C(=O)N[C@@H](C)c3ccc(-c4scnc4C)cc3)N(C(=O)[C@H](NC(=O)COCCCOCCNC(=O)C[C@@H]3N=C(c4ccc(Cl)cc4)c4c(sc(C)c4C)-n4c(C)nnc43)C(C)(C)C)C2)cc(OC)c1 [Compound B2]
338 | 2760 | COc1cc(CC(CCCCNc2cccc3c2C(=O)N(C2CCC(=O)NC2=O)C3=O)C(=O)C[C@@H]2N=C(c3ccc(Cl)cc3)c3c(sc(C)c3C)-n3c(C)nnc32)cc(OC)c1 (stereo partly shown) [Compound B3]
146 | 964 | Cc1ncsc1-c1ccc([C@H](C)NC(=O)[C@@H]2C[C@@H](OC(=O)OCc3c(F)c(F)c(N=[N+]=[N-])c(F)c3F)CN2C(=O)[C@H](NC(=O)CCCCCCCCCCNC(=O)C[C@@H]2N=C(c3ccc(Cl)cc3)c3c(sc(C)c3C)-n3c(C)nnc32)C(C)(C)C)cc1 [Compound C1]
107 | 984 | COc1cc(COC(=O)O[C@@H]2C[C@@H](C(=O)N[C@@H](C)c3ccc(-c4scnc4C)cc3)N(C(=O)[C@H](NC(=O)CCCCCCCCCCNC(=O)C[C@@H]3N=C(c4ccc(Cl)cc4)c4c(sc(C)c4C)-n4c(C)nnc43)C(C)(C)C)C2)cc(OC)c1 [Compound C2]
970 | 1860 | Cc1sc2c(c1C)C(c1ccc(Cl)cc1)=N[C@@H](CC(=O)NCCCCNc1cccc3c1C(=O)N(C1CCC(=O)N(C(=O)OCc4c(F)c(F)c(N)c(F)c4F)C1=O)C3=O)c1nnc(C)n1-2 (stereo partly shown) [Compound C3]
152 | 1220 | Cc1ncsc1-c1ccc([C@H](C)NC(=O)[C@@H]2C[C@@H](OC(=O)OCc3c(F)c(F)c(N=[N+]=[N-])c(F)c3F)CN2C(=O)[C@H](NC(=O)CCOCc2cn(CCOCCNC(=O)C[C@@H]3N=C(c4ccc(Cl)cc4)c4c(sc(C)c4C)-n4c(C)nnc43)nn2)C(C)(C)C)cc1 [Compound D1]
127 | 1010 | COc1cc(COC(=O)O[C@@H]2C[C@@H](C(=O)N[C@@H](C)c3ccc(-c4scnc4C)cc3)N(C(=O)[C@H](NC(=O)CCOCc3cn(CCOCCNC(=O)C[C@@H]4N=C(c5ccc(Cl)cc5)c5c(sc(C)c5C)-n5c(C)nnc54)nn3)C(C)(C)C)C2)cc(OC)c1 [Compound D2]
104 | 1960 | COc1cc(COC(=O)N2C(=O)CCC(N3C(=O)c4cccc(NCCCCNC(=O)C[C@@H]5N=C(c6ccc(Cl)cc6)c6c(sc(C)c6C)-n6c(C)nnc65)c4C3=O)C2=O)cc(OC)c1 (stereo partly shown) [Compound D3]
